Test results taken from publication PMC7068650, “In silico screening of GMQ-like compounds reveals guanabenz and sephin1 as new allosteric modulators of acid-sensing ion channel 3” (Biochemical Pharmacology, 2020).
Blank lines part the entries; values can stand above or below the compound they belong to.

Columns and labels:
Assay type in all cases: cell-based
[1] = biological target: T1, acid-sensing ion channel 3 (rASIC3) (Rattus norvegicus, UniProt O35240); experiment: whole-cell patch clamp, rASIC3-transfected CHO cells, activation at pH […] (estimated EC50; also potentiates pH […] and pH […] responses)
T1 construct: gene Asic3
T1 sequence (O35240 1-533): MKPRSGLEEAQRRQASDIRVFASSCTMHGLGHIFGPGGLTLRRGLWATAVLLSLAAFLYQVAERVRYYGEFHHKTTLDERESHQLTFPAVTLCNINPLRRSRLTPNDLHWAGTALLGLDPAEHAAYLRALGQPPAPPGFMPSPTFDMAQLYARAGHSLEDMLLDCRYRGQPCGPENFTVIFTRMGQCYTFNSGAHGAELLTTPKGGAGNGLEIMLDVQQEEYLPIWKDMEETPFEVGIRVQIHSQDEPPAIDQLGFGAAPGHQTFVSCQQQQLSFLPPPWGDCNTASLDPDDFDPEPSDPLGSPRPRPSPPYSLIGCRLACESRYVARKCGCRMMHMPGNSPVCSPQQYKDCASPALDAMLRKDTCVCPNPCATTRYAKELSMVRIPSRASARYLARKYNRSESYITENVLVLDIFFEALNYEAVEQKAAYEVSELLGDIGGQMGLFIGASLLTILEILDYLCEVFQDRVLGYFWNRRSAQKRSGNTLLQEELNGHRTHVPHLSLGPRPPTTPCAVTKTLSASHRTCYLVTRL

[2] = biological target: T1, acid-sensing ion channel 3 (rASIC3); experiment: whole-cell patch clamp, rASIC3-transfected CHO cells, activation at pH […] (reference agonist; estimated EC50)
[3] = biological target: T1, acid-sensing ion channel 3 (rASIC3); experiment: whole-cell patch clamp, rASIC3-transfected CHO cells, potentiation of the pH […] response at […] (no effect on pH […] response)

EC50 [1]: ~67.5 µM
Structure (SMILES): N=C(N)N/N=C/c1c(Cl)cccc1Cl [GBZ, guanabenz]

EC50 [2]: ~680 µM
Structure (SMILES): Cc1nc(NC(=N)N)nc2ccccc12 [GMQ, 2-guanidine-4-methylquinazoline]

Structure (SMILES): Clc1ccc2nsnc2c1NC1=NCCN1 [TIZ, tizanidine]
whole-cell patch clamp, rASIC3-transfected CHO cells, potentiation of the pH 7 r [3]: TIZ and GBZ produced a similar effect, inducing an increase in the peak and sustained currents
